Data taken from paper PMC12643509, “High-throughput screens identify genotype-specific therapeutics for channelopathies” (JCI Insight, 2025).
Where “and” joins values, the source holds several entries; their conditions need not be identical. Equal values may be shown once.

Legend:
[1] = humans; cited from earlier work
[2] = biological target: wild-type KV11.1 (Homo sapiens, UniProt Q12809); assay: cell-based
[3] = biological target: WT Kv11.1 (Homo sapiens, UniProt Q12809); assay: Whole-cell patch-clamp electrophysiology, drug in bath solution, WT; assay type: cell-based; set-up: expressed in transfected cells; Activation tail currents / Steady-state currents / Time constants of activation (τ): unit not given here; details: for Figure 5B value per cell vs Time / Figure 4B value per cell vs Voltage (mV): individual replicates; for peak tail currents (I-V relationship) / Steady-state currents / Activation tail currents: WT, individual cells; for peak tail currents (I-V relationship): evacetrapib 15 μmol/L in bath; for Steady-state currents / Activation tail currents: evacetrapib 15 μmol/L; for Activation tail currents: tail at –40 mV
Sequence of WT Kv11.1 (Q12809 whole entry): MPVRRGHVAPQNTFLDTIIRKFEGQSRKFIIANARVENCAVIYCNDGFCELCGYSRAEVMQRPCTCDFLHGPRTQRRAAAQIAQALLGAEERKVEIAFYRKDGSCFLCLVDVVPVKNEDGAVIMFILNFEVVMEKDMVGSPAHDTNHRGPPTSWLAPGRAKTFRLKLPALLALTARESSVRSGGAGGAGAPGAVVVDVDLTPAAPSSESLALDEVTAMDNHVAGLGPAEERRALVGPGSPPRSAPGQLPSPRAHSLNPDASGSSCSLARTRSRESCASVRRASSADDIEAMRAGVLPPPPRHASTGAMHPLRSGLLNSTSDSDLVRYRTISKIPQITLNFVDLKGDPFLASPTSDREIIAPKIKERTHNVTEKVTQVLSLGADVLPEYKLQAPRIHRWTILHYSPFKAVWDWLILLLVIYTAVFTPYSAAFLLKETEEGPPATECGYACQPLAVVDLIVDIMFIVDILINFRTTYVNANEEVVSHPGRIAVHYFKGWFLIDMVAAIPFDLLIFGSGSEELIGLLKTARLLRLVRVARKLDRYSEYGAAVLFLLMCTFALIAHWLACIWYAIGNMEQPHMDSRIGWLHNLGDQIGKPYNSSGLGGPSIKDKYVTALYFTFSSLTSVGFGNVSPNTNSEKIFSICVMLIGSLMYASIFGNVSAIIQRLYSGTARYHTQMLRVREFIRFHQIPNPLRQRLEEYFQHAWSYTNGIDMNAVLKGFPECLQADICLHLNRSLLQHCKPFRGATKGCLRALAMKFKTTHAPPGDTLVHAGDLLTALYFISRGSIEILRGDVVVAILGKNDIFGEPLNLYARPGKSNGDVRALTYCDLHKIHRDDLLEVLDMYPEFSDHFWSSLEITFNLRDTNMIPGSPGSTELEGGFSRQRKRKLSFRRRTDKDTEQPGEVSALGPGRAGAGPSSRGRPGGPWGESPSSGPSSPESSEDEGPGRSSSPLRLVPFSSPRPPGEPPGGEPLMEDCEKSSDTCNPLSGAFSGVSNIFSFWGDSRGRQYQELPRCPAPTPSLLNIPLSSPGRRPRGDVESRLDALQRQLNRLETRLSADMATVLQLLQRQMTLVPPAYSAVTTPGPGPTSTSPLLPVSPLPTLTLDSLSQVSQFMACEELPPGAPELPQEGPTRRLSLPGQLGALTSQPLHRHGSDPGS
From the text: Peak stea dy-sta te current was
Tail current was fit with a […]

Sequence of wild-type KV11.1 (Q12809 whole entry): as above

Cc1cc(C)c2c(c1)[C@@H](N(Cc1cc(C(F)(F)F)cc(C(F)(F)F)c1)c1nnn(C)n1)CCCN2C[C@H]1CC[C@H](C(=O)O)CC1 [Evacetrapib, evacetrapib]
peak plasma concentrations [1]: 1.9 to 8.2 µM
EC50 [2]: 8.2 µM
Figure 5B value per cell vs Time ([3]; Time 480): -0.4681 and -0.2647 and -0.2507 and -0.1972 and -0.3239 and -0.2271
Figure 5B value per cell vs Time ([3]; Time 540): -0.5284 and -0.3222 and -0.285 and -0.2169 and -0.3896 and -0.2816
Figure 5B value per cell vs Time ([3]; Time 600): -0.588 and -0.3629 and -0.3374 and -0.2423 and -0.4551 and -0.3284
Figure 5B value per cell vs Time ([3]; Time 660): -0.6518 and -0.4077 and -0.3785 and -0.3017 and -0.5218 and -0.3806
Figure 5B value per cell vs Time ([3]; Time 720): -0.7017 and -0.4517 and -0.4377 and -0.3271 and -0.5811 and -0.4215
Figure 5B value per cell vs Time ([3]; Time 780): -0.7446 and -0.5087 and -0.4704 and -0.3371 and -0.6312 and -0.4754
Figure 5B value per cell vs Time ([3]; Time 840): -0.7775 and -0.545 and -0.522 and -0.4074 and -0.6797 and -0.5211
Figure 5B value per cell vs Time ([3]; Time 900): -0.7865 and -0.5874 and -0.5479 and -0.435 and -0.735 and -0.566
Figure 5B value per cell vs Time ([3]; Time 960): -0.833 and -0.6254 and -0.582 and -0.4724 and -0.7754 and -0.6113
Figure 5B value per cell vs Time ([3]; Time 1020): -0.8444 and -0.6633 and -0.6057 and -0.489 and -0.8272 and -0.6494
Figure 5B value per cell vs Time ([3]; Time 1080): -0.8739 and -0.6879 and -0.652 and -0.5518 and -0.8519 and -0.6869
Figure 5B value per cell vs Time ([3]; Time 1140): -0.894 and -0.7265 and -0.6824 and -0.5792 and -0.8903 and -0.723
Figure 5B value per cell vs Time ([3]; Time 1200): -0.8957 and -0.756 and -0.7067 and -0.6036 and -0.9115 and -0.75
Figure 5B value per cell vs Time ([3]; Time 1260): -0.9162 and -0.7845 and -0.7409 and -0.6519 and -0.9274 and -0.7716
Figure 5B value per cell vs Time ([3]; Time 1320): -0.9293 and -0.808 and -0.7659 and -0.6564 and -0.944 and -0.7966
Figure 5B value per cell vs Time ([3]; Time 1380): -0.9321 and -0.8297 and -0.7811 and -0.6653 and -0.9508 and -0.8202
Figure 5B value per cell vs Time ([3]; Time 1440): -0.9456 and -0.8515 and -0.7941 and -0.6916
Figure 4B value per cell vs Voltage (mV) ([3]; Voltage 0 mV): 11.8726 and 11.4943 and 10.3496 and 10.9094 and 10.8921
Figure 4B value per cell vs Voltage (mV) ([3]; Voltage 10 mV): 8.653 and 8.735 and 8.112 and 8.594 and 8.227
Figure 4B value per cell vs Voltage (mV) ([3]; Voltage 20 mV): 6.045 and 6.561 and 6.2 and 6.536 and 6.09
Figure 4B value per cell vs Voltage (mV) ([3]; Voltage 30 mV): 4.263 and 4.813 and 4.589 (2×) and 4.855
Figure 4B value per cell vs Voltage (mV) ([3]; Voltage 40 mV): 2.999 and 3.548 and 3.503 and 3.618 and 3.396
Figure 4B value per cell vs Voltage (mV) ([3]; Voltage 50 mV): 2.259 and 2.688 and 2.663 and 2.777 and 2.566
Figure 4B value per cell vs Voltage (mV) ([3]; Voltage 60 mV): 1.878 and 2.068 and 2.124 and 2.21 and 2.021
Figure 4B value per cell vs Voltage (mV) ([3]; Voltage 70 mV): 1.522 and 1.6561 and 1.697 and 1.79 and 1.58
peak tail currents (I-V relationship) ([3]; Voltage (mV) 0): 108.731 and 68.2281 and 79.8578 and 105.108 and 89.4676 and 63.9693 and 63.3317 and 23.2206 and 38.9777 and 18.6844
Steady-state currents ([3]; Voltage (mV) 0): 40.4395 and 14.6593 and 23.6253 and 10.7424 and 12.2745 and 25.059 and 13.3557 and 25.8785 and 25.7792 and 48.7186 and 28.6917
Activation tail currents ([3]; Voltage (mV) 0): 45.6244 and 25.343 and 54.0146 and 31.4245 and 29.2272 and 68.7383 and 34.1486 and 20.8925 and 71.2996 and 102.774 and 57.7045
peak tail currents (I-V relationship) ([3]; Voltage (mV) 10): 93.1489 and 60.1622 and 69.939 and 86.7676 and 75.6735 and 55.3784 and 40.7784 and 17.5354 and 25.5833 and 12.8315
Steady-state currents ([3]; Voltage (mV) 10): 32.8981 and 20.4014 and 36.7833 and 17.1944 and 20.5841 and 27.8135 and 21.9511 and 36.7956 and 27.3543 and 47.5782 and 26.4245
Activation tail currents ([3]; Voltage (mV) 10): 61.4581 and 36.6943 and 61.1695 and 48.7606 and 43.5182 and 102.425 and 47.3892 and 33.802 and 80.7764 and 116.916 and 59.6106
peak tail currents (I-V relationship) ([3]; Voltage (mV) 20): 76.997 and 51.8869 and 61.5888 and 71.295 and 62.4196 and 45.36 and 26.1159 and 13.7511 and 17.275 and 9.104
Steady-state currents ([3]; Voltage (mV) 20): 22.6993 and 18.9152 and 37.889 and 17.2911 and 21.9338 and 23.7154 and 29.6022 and 43.1925 and 20.5026 and 37.4057 and 19.7431
Activation tail currents ([3]; Voltage (mV) 20): 71.9787 and 45.4439 and 63.7225 and 61.2461 and 53.0993 and 122.955 and 54.7189 and 46.6431 and 82.6403 and 123.849 and 59.1491
peak tail currents (I-V relationship) ([3]; Voltage (mV) 30): 61.9853 and 42.564 and 49.6862 and 55.8776 and 49.9256 and 37.5621 and 17.4891 and 11.2899 and 12.2347 and 6.843
